# From patent US20070212360A1, “Modulation of mitochondrial oxygen consumption for therapeutic purposes” (priority 2006, published 2007)
# Test system: RKO and RKOShHIF1α cells
# Assay: In vitro oxygen consumption of RKO and RKOShHIF1α cells
# Format: cell-based, human
# Conditions: 0.5% O2 24 h
# Procedure: FIG. 7. Inhibition of HIF1 and PDK1 increases oxygen consumption in vitro and in vivo. (a) Western blots of extracts from RKO and Su.86 cells exposed to normoxia (N) or hypoxia (H) (0.5% O2) for 24 h in the presence or absence of 2 ng/ml echinomycin probed for the indicated proteins. (b) Oxygen consumption rates of RKO and RKOShHIF1α cells (left) and Su.86 cells (right) after 24 h treatment with normoxia or hypoxia (0.5% O2) with or without 2 ng/ml echinomycin. Data are normalized to normoxic samples. (c) Relative oxygen consumption of RKO cells treated with hypoxia (0.5% O2) for 24 h in the presence of increasing concentrations of echinomycin. (d) Oxygen consumption rates of freshly explanted tumor tissue from RKO (n=16) and RKOShHIF1α (n=8) xenografts. (e) Oxygen consumption rates of RKO and RKOShHIF1 tumors from mice treated with 0.12 mg/kg echinomycin ip 24 h prior (n=8), or 50 mg/kg DCA ip 4 h prior (n=8). Data is normalized to PBS treated controls (n=8-16). (*) indicate a significant difference relative to control (p<0.05).
# Oxygen consumption measurements. Cells were trypsinized and suspended at 3×10^6 to 6×10^6 cells per ml in normoxic DMEM+10% FBS. Oxygen consumption was measured in a 0.5 ml volume using an Oxytherm electrode unit (Hansatech, Norfolk, UK). […] Oxygen consumption was measured as above in a 1 ml volume and normalized to tissue weight.
smiles,measurement,setting,value
CS[C@H]1SC[C@H]2C(=O)N(C)[C@@H](C(C)C)C(=O)OC[C@@H](NC(=O)c3cnc4ccccc4n3)C(=O)N[C@@H](C)C(=O)N(C)[C@@H]1C(=O)N(C)[C@@H](C(C)C)C(=O)OC[C@@H](NC(=O)c1cnc3ccccc3n1)C(=O)N[C@@H](C)C(=O)N2C [echinomycin],effect on HIF1-dependent reduction in oxygen consumption in parental cells,"RKO parental cells, increasing concentrations",dose-dependent block
same,effect on oxygen consumption in RKOShHIF1α cells,"RKOShHIF1α cells, 2 ng/ml",no effect
